According to patent US20170313669A1, “LACTONE COMPOUNDS AND METHODS OF MAKING AND USING SAME” (THE SCRIPPS RESEARCH INSTITUTE, priority 2015, published 2017):

Tests used:
[1] = target: T1, PS lipase activity of human lymphoblast cell lines (LCLs) (Homo sapiens, UniProt O95870); test: PS lipase activity of LCL membrane proteomes; format: biochemical; conditions: proteomes pre-treated 1 μM, 30 min, 37° C.
T1 construct: PS lipase activity of membrane proteomes from indicated LCLs; endogenous in cells; host or cells: human lymphoblast cell lines (PHARC subject, relatives, controls), membrane proteome
Source text: For part (a), Student's t-test: ** p<0.005 for PHARC LCL versus Control 1 or Control 2 LCLs.

mouse ABHD16A [2] = target: T2, mouse ABHD16A (Mus musculus, UniProt Q9Z1Q2); test: Competitive gel-based ABPP, mouse ABHD16A-transfected HEK293T proteome; format: biochemical; conditions: 30 min, 37° C., then FP-rhodamine 2 μM
T2 construct: full-length cDNA of human ABHD16A (Open Biosystems Catalog # MHS6278-202758315) or murine ABHD16A (Open Biosystems Catalog # MMM1013-202760516); host or cells: HEK293T, transient, pCMV-SPORT6
T2 sequence (Q9Z1Q2 1-558): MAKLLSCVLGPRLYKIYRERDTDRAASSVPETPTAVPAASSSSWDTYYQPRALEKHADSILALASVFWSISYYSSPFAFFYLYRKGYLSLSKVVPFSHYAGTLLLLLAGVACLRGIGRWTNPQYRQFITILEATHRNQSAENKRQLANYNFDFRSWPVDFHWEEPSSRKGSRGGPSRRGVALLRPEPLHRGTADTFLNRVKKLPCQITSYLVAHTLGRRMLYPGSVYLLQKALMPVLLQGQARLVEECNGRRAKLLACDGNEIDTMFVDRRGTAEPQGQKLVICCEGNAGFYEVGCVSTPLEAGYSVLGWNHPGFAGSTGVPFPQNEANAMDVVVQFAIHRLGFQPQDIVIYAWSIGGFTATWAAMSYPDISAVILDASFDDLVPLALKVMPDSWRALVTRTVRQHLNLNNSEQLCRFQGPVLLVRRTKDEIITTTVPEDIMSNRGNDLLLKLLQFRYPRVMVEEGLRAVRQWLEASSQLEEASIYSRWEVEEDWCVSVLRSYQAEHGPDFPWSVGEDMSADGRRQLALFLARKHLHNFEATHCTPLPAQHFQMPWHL

MCF7 cells = test: PS lipase activity of membrane fraction after in situ treatment; conditions: 1 μM, 4 h
mouse ABHD16A [3] = target: T2, mouse ABHD16A; test: PS substrate assay, mouse ABHD16A-transfected HEK293T proteome; format: biochemical; conditions: 30 min, 37° C.; C18:0/C18:2 PS 100 μM; read-out: IC50, PS-lipase activity
[4] = system: additional off-targets (serine hydrolases); test: ABPP-SILAC, COLO205 cells treated in situ; format: cell-based, human; conditions: 1 μM, 4 h
[5] = target: mouse brain membrane PS lipase activity (Mus musculus, UniProt Q9Z1Q2); format: biochemical; conditions: two-month old ABHD12+/+ and ABHD12−/− mice
ABHD16A = target: T3, ABHD16A (Homo sapiens, UniProt O95870); test: ABPP-SILAC, COLO205 cells treated in situ; format: cell-based; design: All ABPP-SILAC experiments were performed using the human COLO205 colon cancer cell line; endogenous in cells; host or cells: COLO205
T3 sequence (O95870 1-558): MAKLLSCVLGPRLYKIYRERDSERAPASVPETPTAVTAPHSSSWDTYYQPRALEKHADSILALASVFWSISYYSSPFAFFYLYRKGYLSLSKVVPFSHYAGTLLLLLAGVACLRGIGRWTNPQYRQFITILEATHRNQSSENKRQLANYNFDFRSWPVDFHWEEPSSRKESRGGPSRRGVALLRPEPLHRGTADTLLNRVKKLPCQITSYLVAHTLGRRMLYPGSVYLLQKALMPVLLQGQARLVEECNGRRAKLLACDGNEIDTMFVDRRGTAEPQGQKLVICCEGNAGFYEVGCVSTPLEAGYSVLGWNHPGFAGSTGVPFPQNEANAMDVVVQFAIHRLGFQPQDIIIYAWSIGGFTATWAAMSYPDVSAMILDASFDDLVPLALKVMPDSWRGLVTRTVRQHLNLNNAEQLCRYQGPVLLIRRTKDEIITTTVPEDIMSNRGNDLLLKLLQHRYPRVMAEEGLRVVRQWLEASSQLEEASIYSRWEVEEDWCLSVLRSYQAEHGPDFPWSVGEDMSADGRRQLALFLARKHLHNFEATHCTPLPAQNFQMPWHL

[6] = target: PS lipase activity of mouse peritoneal macrophages (Mus musculus, UniProt Q9Z1Q2); test: PS lipase activity of peritoneal macrophage membrane proteomes; conditions: LPS-stimulated macrophages; 1 μM, 30 min, 37° C.
ABHD16A−/− macrophages = test: Lyso-PS and cytokines of ABHD16A−/− macrophages; format: cell-based, mouse; conditions: basal or LPS stimulation; 1 μM, 4 h
Method: Concentration of secreted lyso-PS (a) and cytokines IL-6 (b) and TNF-α (c) from thioglycollate-elicited peritoneal mouse macrophages from ABHD16A^−/− mice treated with inhibitor (KC01 or KC02, 1 μM, 4 h) followed by vehicle (PBS) or LPS (5 μg/mL) for 7 h is shown. Data represent mean±s.e.m. for four biological replicates. KC01 and KC02 have no effect on lyso-PS or cytokine secretion. Other secreted and cellular lipids in ABHD16A^−/− macrophages were also unchanged by KC01 or KC02 treatment (data not shown).
Peritoneal macrophages were elicited and harvested from mice according to the standard protocols available from LIPID MAPS (See http://www.lipidmaps.org/protocols/PP0000001400.pdf and http://www.lipidmaps.org/protocols/PP0000001500.pdf). After removal of the RBC lysis buffer, the macrophages were re-suspended in RPMI 1640 with 10% FCS and IX penicillin-streptomycin. Cell counts measured using a Bio-Rad TC10 automated cell counter, and equal numbers of cells (2×10^6) were plated in 10 cm tissue culture dishes. Macrophages were allowed to adhere to the plates for 2 h at 37° C. and 5% CO2. […] Macrophages were then stimulated with lipopolysaccharide (5 μg/mL) for 7 hours. Sterile PBS was the vehicle in these studies. Four milliliters of the media was used for measuring secreted metabolites, and 0.5 mL was used for cytokine measurements.

In the case of `CCCCCCCCCCCCCC1OC(=O)/C1=C\CCCCC(N)=O` (stereo not shown) [KC01, (Z)-6-(2-oxo-4-tridecyloxetan-3-ylidene)hexanamide], the PS lipase activity [1] is reported as “substantially reduced”, the IC50 (mouse ABHD16A [2]) is reported as roughly 0.5 µM and the “decrease of PS-lipase activity vs DMSO” value (MCF7 cells) is reported as greater than 90%. For the same compound, the IC50 (mouse ABHD16A [3]) was 0.52 ± 0.07 µM, the inhibition [4] was 50-80% and the “PS lipase activity of brain membrane lysates” value [5] was “inhibited the PS lipase activity”. For the same compound, the “light:heavy ratio” value (ABHD16A; 1 μM, 4 h) was 0.02, the inhibition at 1 µM (ABHD16A; COLO 205, 4 h) was 98% and the PS lipase activity [6] was “blocked”. For the same compound, the “cellular or secreted lyso-PS, other lipids, secreted IL-6 and TNF-α” value (ABHD16A−/− macrophages) was “No changes”.
